# Results as given in ChEMBL document CHEMBL1129432, “Structure-activity relationships of a series of novel (piperazinylbutyl)thiazolidinone antipsychotic agents related to 3-[4-[4-(6-fluorobenzo[b]thien-3-yl)-1-piperazinyl]butyl]-2,5,5- trimethyl-4-thiazolidinone maleate” (J Med Chem, 1996).
# What was measured:
# [1] = target: T1, 5-hydroxytryptamine receptor 1A (Rattus norvegicus, UniProt P19327); assay: Binding affinity towards serotonin 5-HT1A receptor was determined in rat hippocampus using [3H]8-OH-DPAT as ligand; format: tissue-based
# T1 sequence (P19327 whole entry): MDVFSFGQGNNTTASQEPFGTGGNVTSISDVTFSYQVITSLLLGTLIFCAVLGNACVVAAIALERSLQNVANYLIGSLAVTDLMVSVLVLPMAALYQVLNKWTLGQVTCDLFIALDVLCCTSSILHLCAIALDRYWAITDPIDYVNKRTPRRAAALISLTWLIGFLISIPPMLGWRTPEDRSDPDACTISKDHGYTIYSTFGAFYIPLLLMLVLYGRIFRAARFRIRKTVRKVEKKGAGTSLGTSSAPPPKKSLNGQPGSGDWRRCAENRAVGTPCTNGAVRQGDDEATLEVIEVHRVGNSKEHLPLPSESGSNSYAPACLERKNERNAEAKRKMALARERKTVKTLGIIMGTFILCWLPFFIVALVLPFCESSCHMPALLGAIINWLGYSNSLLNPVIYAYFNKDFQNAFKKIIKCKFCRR
# [2] = target: Serotonin 2 (5-HT2) receptor (Rattus norvegicus, UniProt P30994+P08909+P14842); assay: Binding affinity towards serotonin 5-HT2 receptor was determined in rat cortex using [3H]spiperone as ligand
# [3] = target: T2, 5-hydroxytryptamine receptor 2A (Homo sapiens, UniProt P28223); assay: Inhibitory concentration against human 5-HT2A receptor in BEK cells; format: cell-based
# [4] = target: T2, 5-hydroxytryptamine receptor 2A; assay: Binding affinity towards human 5-HT2A receptor in BEK cells; format: cell-based
# D(2) dopamine receptor = D(2) dopamine receptor (Rattus norvegicus, UniProt P61169); assay: Binding affinity towards Dopamine receptor D2 was determined in rat striatum using [3H]- spiperone as radioligand; format: tissue-based
# D(4) dopamine receptor [5] = target: T3, D(4) dopamine receptor (Homo sapiens, UniProt P21917); assay: Binding affinity against human Dopamine receptor D4.2 in CHO cells; format: cell-based
# T3 sequence (P21917 whole entry): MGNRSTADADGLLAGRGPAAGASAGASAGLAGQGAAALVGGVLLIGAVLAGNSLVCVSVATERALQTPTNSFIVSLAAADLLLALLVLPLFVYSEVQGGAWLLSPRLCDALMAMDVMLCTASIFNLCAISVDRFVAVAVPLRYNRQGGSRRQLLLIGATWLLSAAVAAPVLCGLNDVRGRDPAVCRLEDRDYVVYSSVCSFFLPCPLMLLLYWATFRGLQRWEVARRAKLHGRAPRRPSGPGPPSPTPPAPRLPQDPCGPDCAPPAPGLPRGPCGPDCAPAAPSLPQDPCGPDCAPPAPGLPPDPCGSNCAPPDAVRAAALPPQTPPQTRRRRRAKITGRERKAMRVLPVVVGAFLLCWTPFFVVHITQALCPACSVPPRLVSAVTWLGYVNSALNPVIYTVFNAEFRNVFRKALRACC
# Rattus norvegicus [6] = assay: Compound at an intraperitoneal dose of 50 mg/Kg was tested for the inhibition of apomorphine-induced stereotypy in rat; format: functional; set-up: scale not given: the % may be the effect or the level left
# Rattus norvegicus [7] = assay: Compound at an intraperitoneal dose of 60 mg/Kg was tested for the inhibition of apomorphine-induced stereotypy in rat; format: functional; set-up: scale not given: the % may be the effect or the level left
# Rattus norvegicus [8] = assay: Percentage change in Social interaction when compound administered at a doe of 2.5 mg/kg ip in rats; format: functional; settings: route intraperitoneal
# Rattus norvegicus [9] = assay: Percentage change in Social interaction when compound administered at a doe of 5 mg/kg ip in rats; format: functional; settings: route intraperitoneal
# Rattus norvegicus [10] = assay: Percentage change in Total activity (anti psychotic) when compound administered at a doe of 1.25 mg/kg ip in rats; format: functional; settings: route intraperitoneal
# Rattus norvegicus [11] = assay: Percentage change in Total activity (anti psychotic) when compound administered at a doe of 2.5 mg/kg ip in rats; format: functional; settings: route intraperitoneal
# Rattus norvegicus [12] = assay: Percentage change in Social interaction when compound administered at a doe of 1.25 mg/kg ip in rats; format: functional; settings: route intraperitoneal
# Rattus norvegicus [13] = assay: Percentage change in Total activity (anti psychotic) when compound administered at a doe of 5 mg/kg ip in rats; format: functional; settings: route intraperitoneal
# Rattus norvegicus [14] = assay: Percentage change in chronic single unit sampling when compound given at a dose of 10 mg/kg ip (Expt-2); format: functional; settings: route intraperitoneal
# Rattus norvegicus [15] = assay: Percentage change in chronic single unit sampling when compound given at a dose of 10 mg/kg ip in rats; format: functional; settings: route intraperitoneal
# Rattus norvegicus [16] = assay: Percentage change in chronic single unit sampling when compound given at a dose of 20 mg/kg ip in rats; format: functional; settings: route intraperitoneal
# Rattus norvegicus [17] = assay: Percentage change in chronic single unit sampling when compound given at a dose of 20 mg/kg ip in rats (Expt-2); format: functional; settings: route intraperitoneal
# Rattus norvegicus [18] = assay: Anti psychotic effect Social interaction when compound administered at a doe of 1.25 mg/kg ip in rats; format: functional; settings: route intraperitoneal
# Rattus norvegicus [19] = assay: Anti psychotic effect Social interaction when compound administered at a doe of 2.5 mg/kg ip in rats; format: functional; settings: route intraperitoneal
# Rattus norvegicus [20] = assay: Anti psychotic effect Social interaction when compound administered at a doe of 5 mg/kg ip in rats; format: functional; settings: route intraperitoneal
# Rattus norvegicus [21] = assay: Total activity (anti psychotic) when compound administered at a doe of 2.5 mg/kg ip in rats; format: functional; settings: route intraperitoneal
# Rattus norvegicus [22] = assay: Total activity (anti psychotic) when compound administered at a doe of 5 mg/kg ip in rats; format: functional; settings: route intraperitoneal
# Rattus norvegicus [23] = assay: Total activity (anti psychotic) when compound administered at a doe of 1.25 mg/kg ip in rats; format: functional; settings: route intraperitoneal
# D(4) dopamine receptor [24] = target: T3, D(4) dopamine receptor
# Description: Inhibitory concentration against human Dopamine receptor D4.2 in CHO cells
# Rattus norvegicus [25] = assay: Compound at an intraperitoneal dose of 20 mg/Kg was tested for the inhibition of apomorphine-induced stereotypy in rat; format: functional; set-up: scale not given: the % may be the effect or the level left
# Rattus norvegicus [26] = assay: Compound at an intraperitoneal dose of 30 mg/Kg was tested for the inhibition of apomorphine-induced stereotypy in rat; format: functional; set-up: scale not given: the % may be the effect or the level left
# Rattus norvegicus [27] = assay: Percentage change in chronic single unit sampling when compound given at a dose of 10 mg/kg ip in rats(Expt-2); format: functional; settings: route intraperitoneal
# Rattus norvegicus [28] = assay: Percentage change in Social interaction when compound administered at a doe of 10 mg/kg ip in rats; format: functional; settings: route intraperitoneal
# Rattus norvegicus [29] = assay: Percentage change in Total activity (anti psychotic) when compound administered at a doe of 10 mg/kg ip in rats; format: functional; settings: route intraperitoneal
# [30] = Compound at an intraperitoneal dose of 40 mg/Kg was tested for the inhibition of apomorphine-induced stereotypy in rat; format: functional; set-up: scale not given: the % may be the effect or the level left
# Rattus norvegicus [31] = assay: Anti psychotic effect Social interaction when compound administered at a doe of 10 mg/kg ip in rats; format: functional; settings: route intraperitoneal
# Rattus norvegicus [32] = assay: Total activity (anti psychotic) when compound administered at a doe of 10 mg/kg ip in rats; format: functional; settings: route intraperitoneal
# Rattus norvegicus [33] = assay: Percentage change in Total activity (anti psychotic) when compound administered at a doe of 0.05 mg/kg ip in rats; format: functional; settings: route intraperitoneal
# Rattus norvegicus [34] = assay: Percentage change in Total activity (anti psychotic) when compound administered at a doe of 0.125 mg/kg ip in rats; format: functional; settings: route intraperitoneal
# Rattus norvegicus [35] = assay: Percentage change in Social interaction when compound administered at a doe of 0.05 mg/kg ip in rats; format: functional; settings: route intraperitoneal
# Rattus norvegicus [36] = assay: Percentage change in Social interaction when compound administered at a doe of 0.125 mg/kg ip in rats; format: functional; settings: route intraperitoneal
# Rattus norvegicus [37] = assay: Percentage change in chronic single unit sampling when compound given at a dose of 0.5 mg/kg ip in rats; format: functional; settings: route intraperitoneal
# Rattus norvegicus [38] = assay: Percentage change in chronic single unit sampling when compound given at a dose of 0.5 mg/kg ip in rats (Expt-2); format: functional; settings: route intraperitoneal
# [39] = Intraperitoneal effective dose required for inhibition of apomorphine-induced stereotypy in rat; format: functional; settings: ip
# Rattus norvegicus [40] = assay: Anti psychotic effect Social interaction when compound administered at a doe of 0.05 mg/kg ip in rats; format: functional; settings: route intraperitoneal
# Rattus norvegicus [41] = assay: Anti psychotic effect Social interaction when compound administered at a doe of 0.125 mg/kg ip in rats; format: functional; settings: route intraperitoneal
# Rattus norvegicus [42] = assay: Total activity (anti psychotic) when compound administered at a doe of 0.125 mg/kg ip in rats; format: functional; settings: route intraperitoneal
# T2 sequence (P28223 whole entry): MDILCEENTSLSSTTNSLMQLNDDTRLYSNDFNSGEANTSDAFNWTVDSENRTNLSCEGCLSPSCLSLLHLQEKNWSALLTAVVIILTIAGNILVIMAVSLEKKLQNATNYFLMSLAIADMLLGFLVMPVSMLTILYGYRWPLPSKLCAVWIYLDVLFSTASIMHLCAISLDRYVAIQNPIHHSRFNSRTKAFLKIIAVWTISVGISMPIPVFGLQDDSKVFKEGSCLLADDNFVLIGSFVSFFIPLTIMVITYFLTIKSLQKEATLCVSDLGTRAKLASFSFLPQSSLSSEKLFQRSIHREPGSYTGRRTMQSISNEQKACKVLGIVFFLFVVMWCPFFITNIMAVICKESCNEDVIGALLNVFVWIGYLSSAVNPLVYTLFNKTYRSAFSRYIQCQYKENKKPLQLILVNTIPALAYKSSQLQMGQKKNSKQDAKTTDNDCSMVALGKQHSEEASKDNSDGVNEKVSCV
# D(2) dopamine receptor, sequence (P61169 whole entry): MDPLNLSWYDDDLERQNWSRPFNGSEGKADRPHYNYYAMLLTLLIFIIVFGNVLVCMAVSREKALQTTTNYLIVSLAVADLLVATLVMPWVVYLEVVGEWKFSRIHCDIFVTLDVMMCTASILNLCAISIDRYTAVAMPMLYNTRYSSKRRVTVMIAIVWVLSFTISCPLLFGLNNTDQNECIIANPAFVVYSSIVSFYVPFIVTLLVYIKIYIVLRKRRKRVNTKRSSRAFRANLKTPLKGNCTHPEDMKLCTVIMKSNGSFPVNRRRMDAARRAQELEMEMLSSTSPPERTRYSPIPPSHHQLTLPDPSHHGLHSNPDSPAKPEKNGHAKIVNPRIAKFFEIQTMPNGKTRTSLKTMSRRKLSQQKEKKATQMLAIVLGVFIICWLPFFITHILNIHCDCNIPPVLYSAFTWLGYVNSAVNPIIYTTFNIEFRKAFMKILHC
SMILES,IC50 [1],IC50 [2],IC50 [3],Ki [4],IC50 (D(2) dopamine receptor),Ki (D(4) dopamine receptor [5]),Change (Rattus norvegicus [8]),Change (Rattus norvegicus [9]),Change (Rattus norvegicus [10]),Change (Rattus norvegicus [11]),Change (Rattus norvegicus [12]),Change (Rattus norvegicus [13]),Change (Rattus norvegicus [15]),Change (Rattus norvegicus [16]),Change (Rattus norvegicus [17]),Social interaction (Rattus norvegicus [18]),Social interaction (Rattus norvegicus [19]),Social interaction (Rattus norvegicus [20]),Total activity (Rattus norvegicus [21]),Total activity (Rattus norvegicus [22]),other results
CC1SC2(CCCC2)C(=O)N1CCCCN1CCN(c2csc3cc(F)ccc23)CC1 (centres undefined),189 nM,131 nM,8 nM,4 nM,954 nM,117 nM,14%,5%,1%,18%,13%,-36%,-27%,-39%,-8%,108,106.5,97.3,106.3,82.1,Activity (Rattus norvegicus [6]): 20%; Activity (Rattus norvegicus [7]): 50%; Change (Rattus norvegicus [14]): -12%; Total activity (Rattus norvegicus [23]): 146; IC50 (D(4) dopamine receptor [24]): 713 nM
CC1SC2(CCCC2)C(=O)N1CCCCN1CCN(c2nsc3ccccc23)CC1 (centres undefined),3 nM,9.6 nM,–,–,154 nM,–,–,–,–,–,–,–,–,–,–,–,–,–,–,–,Activity (Rattus norvegicus [25]): 10%; Activity (Rattus norvegicus [26]): 100%
CC1SC(C)(C)C(=O)N1CCCCN1CCN(c2csc3cc(F)ccc23)CC1 (centres undefined),61 nM,56 nM,17 nM,8 nM,–,5 nM,9%,–,1%,-32%,14%,–,-34%,-57%,32%,114,109.1,–,96,–,Change (Rattus norvegicus [27]): 14%; Total activity (Rattus norvegicus [23]): 144.3; IC50 (D(4) dopamine receptor [24]): 29 nM
CN1CCN(C2=Nc3cc(Cl)ccc3Nc3ccccc32)CC1 [CLOZAPINE],–,–,–,–,–,–,–,14%,–,–,–,-18%,–,-79%,37%,–,–,123.3,–,140.3,Change (Rattus norvegicus [28]): 40%; Change (Rattus norvegicus [29]): -15%; Activity [30]: 33%; Social interaction (Rattus norvegicus [31]): 151.3; Total activity (Rattus norvegicus [32]): 146.3
O=C(CCCN1CCC(O)(c2ccc(Cl)cc2)CC1)c1ccc(F)cc1 [HALOPERIDOL],–,–,–,–,–,–,–,–,–,–,–,–,–,–,–,–,–,–,–,–,Change (Rattus norvegicus [33]): -11%; Change (Rattus norvegicus [34]): -22%; Change (Rattus norvegicus [35]): -19%; Change (Rattus norvegicus [36]): -32%; Change (Rattus norvegicus [37]): -35%; Change (Rattus norvegicus [38]): -30%; ED50 [39]: 0.6 mg/kg; Social interaction (Rattus norvegicus [40]): 77.2; Social interaction (Rattus norvegicus [41]): 65.6; Total activity (Rattus norvegicus [42]): 112.3
